Results taken from patent publication US8716493B2, “Multicyclic compounds and the use thereof” (Cephalon, Inc., priority 2000, dated 2014).
Where a name gives a salt, the structure may show the parent alone.

biological target: recombinant human PARP (Homo sapiens, UniProt P09874); assay: Measurement of PARP enzymatic activity (transfer of radiolabeled ADP-ribose from NAD+ to protein acceptor); assay type: biochemical; conditions: Table 1; read-out: PARP IC50
Procedure: PARP activity was monitored by transfer of radiolabeled ADP-ribose units from [^32]NAD^+ to a protein acceptor such as histone or PARP itself. […] The reactions were initiated by the addition of 100 μM NAD^+ supplemented with 2 uCi [^32]NAD^+/mL and maintained at room temperature for 12 minutes. […] The amount of acid-insoluble radioactivity, corresponding to polyADP-ribosylated protein, was quantitated in a Wallac MicroBeta scintillation counter.
Single-point inhibition data were calculated by comparing PARP, VEGFR2, or MLK3 activity in the presence of inhibitor to activity in the presence of DMSO only. Inhibition curves for compounds were generated by plotting percent inhibition versus log10 of the concentration of compound. IC50 values were calculated by nonlinear regression using the sigmoidal dose-response (variable slope) equation in GraphPad Prism as follows: y=bottom+(top−bottom)/(1+10^(log IC50^−x)*Hillslope) where y is the % activity at a given concentration of compound, x is the logarithm of the concentration of compound, bottom is the % inhibition at the lowest compound concentration tested, and top is the % inhibition at the highest compound concentration examined. The values for bottom and top were fixed at 0 and 100, respectively. IC50 values were reported as the average of at least three separate determinations.
For some compounds, inhibiting data is presented as percent inhibition at a specified concentration. Compounds are tabulated together with compound number, substituents, and enzyme inhibition data.

Sequence of recombinant human PARP (P09874 whole entry): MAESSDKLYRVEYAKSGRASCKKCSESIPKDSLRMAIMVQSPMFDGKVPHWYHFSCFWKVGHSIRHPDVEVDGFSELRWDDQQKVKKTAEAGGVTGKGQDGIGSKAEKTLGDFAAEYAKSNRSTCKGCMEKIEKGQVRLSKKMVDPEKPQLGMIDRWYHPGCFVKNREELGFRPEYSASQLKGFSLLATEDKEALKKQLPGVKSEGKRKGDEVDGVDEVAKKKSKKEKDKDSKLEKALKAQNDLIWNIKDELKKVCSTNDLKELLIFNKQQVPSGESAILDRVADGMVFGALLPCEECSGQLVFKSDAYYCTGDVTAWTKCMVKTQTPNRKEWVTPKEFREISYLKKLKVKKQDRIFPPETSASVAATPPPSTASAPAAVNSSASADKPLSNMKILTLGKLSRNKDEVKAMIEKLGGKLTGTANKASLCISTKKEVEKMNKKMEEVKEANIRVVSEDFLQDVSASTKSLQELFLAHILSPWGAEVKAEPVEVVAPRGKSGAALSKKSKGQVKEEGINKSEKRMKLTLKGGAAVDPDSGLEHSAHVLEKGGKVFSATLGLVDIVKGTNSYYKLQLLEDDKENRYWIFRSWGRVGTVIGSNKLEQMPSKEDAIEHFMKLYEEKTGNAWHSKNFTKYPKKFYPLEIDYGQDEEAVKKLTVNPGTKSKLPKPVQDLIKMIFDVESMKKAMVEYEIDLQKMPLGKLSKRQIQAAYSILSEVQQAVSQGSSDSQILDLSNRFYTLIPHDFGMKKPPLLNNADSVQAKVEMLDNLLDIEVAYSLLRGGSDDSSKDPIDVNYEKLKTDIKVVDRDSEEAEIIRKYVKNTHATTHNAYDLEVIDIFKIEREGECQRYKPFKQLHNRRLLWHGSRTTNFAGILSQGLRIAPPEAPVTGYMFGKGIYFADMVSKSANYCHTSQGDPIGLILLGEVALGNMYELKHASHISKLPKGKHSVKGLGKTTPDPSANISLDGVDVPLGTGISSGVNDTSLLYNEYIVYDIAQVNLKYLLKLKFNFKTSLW

Structure (SMILES) | IC50
O=C1NC(=O)c2c1c1c(c3[nH]c4ccccc4c23)CCC1 [Compound 1a, 5,7,8,9,10,11-hexahydrocyclopent[a]pyrrolo[3,4-c]carbazole-5(6H), 7-dione] | 36 nM
O=C1c2c3c(c4[nH]c5ccccc5c4c2C(=O)N1CCCO)CCC3 [Compound 1e] | 946 nM
CCN(CC)CCCN1C(=O)c2c3c(c4[nH]c5ccccc5c4c2C1=O)CCC3 [Compound 1h] | 819 nM
O=C1c2c3c(c4[nH]c5ccccc5c4c2C(=O)N1S(=O)(=O)c1ccccc1)CCC3 [Compound 1j] | 250 nM
NCCC(=O)N1C(=O)c2c3c(c4[nH]c5ccccc5c4c2C1=O)CCC3 [Compound 1l] | 160 nM
NCC(=O)N1C(=O)c2c3c(c4[nH]c5ccccc5c4c2C1=O)CCC3 [Compound 1m] | 38 nM
O=C1c2c3c(c4[nH]c5ccccc5c4c2C(=O)N1CCOCc1ccccc1)CCC3 [Compound 1n] | 1600 nM
CC(C)(C)OC(=O)NCCCC[C@H](NC(=O)OC(C)(C)C)C(=O)n1c2ccccc2c2c3c(c4c(c21)CCC4)C(=O)NC3 [Compound 1u, 11-[Bis(t-butoxycarbonyl)-L-lysyl]-5,7,8,9,10,11-hexahydrocyclopent[a]pyrrolo[3,4-c]carbazole-7(6H)-one] | 1500 nM
NCCCC[C@H](N)C(=O)n1c2ccccc2c2c3c(c4c(c21)CCC4)C(=O)NC3 [Compound 1v, 11-L-Lysyl-5,7,8,9,10,11-hexahydrocyclopent[a]pyrrolo[3,4-c]carbazole-7(6H)-one dihydrochloride] | 1400 nM

same assay, conditions: Table 2; read-out: PARP IC50

Structure (SMILES) | IC50
O=C1NC(=O)c2c1c1c(c3[nH]c4ccc(Br)cc4c23)CCC1 [Compound 2a] | 25 nM
COC(=O)CCCC(=O)NCc1ccc2[nH]c3c4c(c5c(c3c2c1)C(=O)NC5=O)CCC4 [Compound 2aa, 3-(N-(4-(Methoxycarbonyl)butanoyl)aminomethyl)-5,7,8,9,10,11-hexahydrocyclopent[a]pyrrolo[3,4-c]carbazole-5(6H), 7-dione] | 9 nM
O=C(O)CCC(=O)NCc1ccc2[nH]c3c4c(c5c(c3c2c1)C(=O)NC5=O)CCC4 [Compound 2ab, 3-(N-(3-(Carboxy)propanoyl)aminomethyl)-5,7,8,9,10,11-hexahydrocyclopent[a]-pyrrolo[3,4-c]carbazole-5(6H), 7-dione] | 50 nM
O=C(O)CCCC(=O)NCc1ccc2[nH]c3c4c(c5c(c3c2c1)C(=O)NC5=O)CCC4 [Compound 2ac, 3-(N-(4-(Carboxy)butanoyl)aminomethyl)-5,7,8,9,10,11-hexahydrocyclopent[a]-pyrrolo[3,4-c]carbazole-5(6H), 7-dione] | 48 nM
CC(C)(C)OC(=O)NCc1ccc2[nH]c3c4c(c5c(c3c2c1)C(=O)NC5=O)CCC4 [Compound 2ad, 3-(N-Boc-aminomethyl)-5,7,8,9,10,11-hexahydrocyclopent[a]pyrrolo[3,4-c]carbazole-5(6H), 7-dione] | 93 nM
O=C1NC(=O)c2c1c1c(c3[nH]c4ccc(S(=O)(=O)O)cc4c23)CCC1 [Compound 2ae] | 8 nM
O=C1NC(=O)c2c1c1c(c3[nH]c4ccc(O)cc4c23)CCC1 [Compound 2ao] | 27 nM
COc1ccc2[nH]c3c4c(c5c(c3c2c1)C(=O)NC5=O)CCC4 [Compound 2ap] | 32 nM
CCOCCOc1ccc2[nH]c3c4c(c5c(c3c2c1)C(=O)NC5=O)CCC4 [Compound 2aq] | 59 nM
CCN(CC)CCOc1ccc2[nH]c3c4c(c5c(c3c2c1)C(=O)NC5=O)CCC4 [Compound 2ar] | 88 nM
CN(C)CCCOc1ccc2[nH]c3c4c(c5c(c3c2c1)C(=O)NC5=O)CCC4 [Compound 2as] | 100 nM
O=C1NC(=O)c2c1c1c(c3[nH]c4ccc(OCCN5CCOCC5)cc4c23)CCC1 [Compound 2at] | 22 nM
CC(=O)Oc1ccc2[nH]c3c4c(c5c(c3c2c1)C(=O)NC5=O)CCC4 [Compound 2au] | 33 nM
O=C1NC(=O)c2c1c1c(c3[nH]c4ccc(CO)cc4c23)CCC1 [Compound 2aw] | 22 nM
CC(O)c1ccc2[nH]c3c4c(c5c(c3c2c1)C(=O)NC5=O)CCC4 (stereo not shown) [Compound 2ax] | 102 nM

same assay, conditions: Table 3; read-out: PARP IC50

Structure (SMILES) | IC50
O=C1NC(=O)c2c1c1c(c3[nH]c4ccccc4c23)CCC1 [Compound 1a, 5,7,8,9,10,11-hexahydrocyclopent[a]pyrrolo[3,4-c]carbazole-5(6H), 7-dione] | 36 nM
